# Results from ChEMBL document CHEMBL4190322, “Structure-based development of novel triazoles and related thiazolotriazoles as anticancer agents and Cdc25A/B phosphatase inhibitors. Synthesis, in vitro biological evaluation, molecular docking and in silico ADME-T studies” (Eur J Med Chem, 2017).
# Calls of active or inactive are those of the source. No cut-off for these calls is given here.
# Legend:
# Format in all cases: functional
# [1] = tested on: NCI/ADR-RES; assay: Growth inhibition of human NCI/ADR-RES cells at 10 uM after 48 hrs by SRB assay relative to control; details: read-out: GI
# [2] = tested on: HL-60; assay: Growth inhibition of human HL60 cells at 10 uM after 48 hrs by SRB assay relative to control
# [3] = tested on: MDA-MB-468; assay: Growth inhibition of human MDA-MB-468 cells at 10 uM after 48 hrs by SRB assay relative to control
# [4] = tested on: SK-OV-3; assay: Growth inhibition of human SKOV3 cells at 10 uM after 48 hrs by SRB assay relative to control; details: SK-OV-3, 48 h, read-out: GI
# [5] = tested on: NCI-H522; assay: Growth inhibition of human NCI-H522 cells at 10 uM after 48 hrs by SRB assay relative to control; details: NCI-H522, 48 h, read-out: GI
# [6] = tested on: OVCAR-8; assay: Growth inhibition of human OVCAR8 cells at 10 uM after 48 hrs by SRB assay relative to control
# [7] = tested on: MCF7; assay: Growth inhibition of human MCF7 cells at 10 uM after 48 hrs by SRB assay relative to control
# [8] = tested on: A549; assay: Growth inhibition of human A549 cells at 10 uM after 48 hrs by SRB assay relative to control
# [9] = tested on: 786-0; assay: Growth inhibition of human 786-0 cells at 10 uM after 48 hrs by SRB assay relative to control
# [10] = tested on: RPMI-8226; assay: Growth inhibition of human RPMI8226 cells at 10 uM after 48 hrs by SRB assay relative to control
# [11] = tested on: CAKI-1; assay: Growth inhibition of human Caki1 cells at 10 uM after 48 hrs by SRB assay relative to control
# [12] = tested on: KM12; assay: Growth inhibition of human KM12 cells at 10 uM after 48 hrs by SRB assay relative to control
# [13] = tested on: K562; assay: Growth inhibition of human K562 cells at 10 uM after 48 hrs by SRB assay relative to control; details: K562, 48 h, read-out: GI
# [14] = tested on: Malme-3M; assay: Growth inhibition of human MALME-3M cells at 10 uM after 48 hrs by SRB assay relative to control
# [15] = tested on: HCT-116; assay: Growth inhibition of human HCT116 cells at 10 uM after 48 hrs by SRB assay relative to control
# [16] = tested on: RXF 393; assay: Growth inhibition of human RXF393 cells at 10 uM after 48 hrs by SRB assay relative to control
# [17] = tested on: LOX IMVI; assay: Growth inhibition of human LOXIMVI cells at 10 uM after 48 hrs by SRB assay relative to control; details: read-out: GI
# [18] = tested on: UO-31; assay: Growth inhibition of human UO31 cells at 10 uM after 48 hrs by SRB assay relative to control; details: UO-31, 48 h, read-out: GI
# [19] = tested on: SNB-19; assay: Growth inhibition of human SNB19 cells at 10 uM after 48 hrs by SRB assay relative to control
# [20] = tested on: SK-MEL-5; assay: Growth inhibition of human SK-MEL-5 cells at 10 uM after 48 hrs by SRB assay relative to control
# [21] = tested on: PC-3; assay: Growth inhibition of human PC3 cells at 10 uM after 48 hrs by SRB assay relative to control; details: PC-3, 48 h, read-out: GI
# [22] = tested on: MOLT-4; assay: Growth inhibition of human MOLT4 cells at 10 uM after 48 hrs by SRB assay relative to control; details: MOLT-4, 48 h, read-out: GI
# [23] = tested on: A498; assay: Growth inhibition of human A498 cells at 10 uM after 48 hrs by SRB assay relative to control
# [24] = tested on: HOP-62; assay: Growth inhibition of human HOP62 cells at 10 uM after 48 hrs by SRB assay relative to control; details: HOP-62, 48 h, read-out: GI
# [25] = tested on: NCI-H23; assay: Growth inhibition of human NCI-H23 cells at 10 uM after 48 hrs by SRB assay relative to control; details: NCI-H23, 48 h, read-out: GI
# [26] = tested on: SK-MEL-2; assay: Growth inhibition of human SK-MEL-2 cells at 10 uM after 48 hrs by SRB assay relative to control; details: SK-MEL-2, 48 h, read-out: GI
# [27] = tested on: Hs-578T; assay: Growth inhibition of human Hs 578T cells at 10 uM after 48 hrs by SRB assay relative to control
# [28] = tested on: NCI-H226; assay: Growth inhibition of human NCI-H226 cells at 10 uM after 48 hrs by SRB assay relative to control
# [29] = tested on: SF-268; assay: Growth inhibition of human SF268 cells at 10 uM after 48 hrs by SRB assay relative to control
# [30] = tested on: CCRF-CEM; assay: Growth inhibition of human CCRF-CEM cells at 10 uM after 48 hrs by SRB assay relative to control; details: read-out: GI
# [31] = tested on: UACC-257; assay: Growth inhibition of human UACC257 cells at 10 uM after 48 hrs by SRB assay relative to control
# [32] = tested on: U-251; assay: Growth inhibition of human U251 cells at 10 uM after 48 hrs by SRB assay relative to control; details: U-251, 48 h, read-out: GI
# [33] = tested on: NCI-H322M; assay: Growth inhibition of human NCI-H322M cells at 10 uM after 48 hrs by SRB assay relative to control
# [34] = tested on: UACC-62; assay: Growth inhibition of human UACC62 cells at 10 uM after 48 hrs by SRB assay relative to control; details: UACC-62, 48 h, read-out: GI
# [35] = tested on: HOP-92; assay: Growth inhibition of human HOP92 cells at 10 uM after 48 hrs by SRB assay relative to control; details: HOP-92, 48 h, read-out: GI
# [36] = tested on: HT-29; assay: Growth inhibition of human HT-29 cells at 10 uM after 48 hrs by SRB assay relative to control
# [37] = tested on: OVCAR-4; assay: Growth inhibition of human OVCAR4 cells at 10 uM after 48 hrs by SRB assay relative to control
# [38] = tested on: SNB-75; assay: Growth inhibition of human SNB75 cells at 10 uM after 48 hrs by SRB assay relative to control
# [39] = tested on: SR; assay: Growth inhibition of human SR cells at 10 uM after 48 hrs by SRB assay relative to control; details: read-out: GI
# [40] = tested on: OVCAR-3; assay: Growth inhibition of human OVCAR3 cells at 10 uM after 48 hrs by SRB assay relative to control
Compound,inhibition of growth at 10 µM [1],growth inhibition (GI) [2],growth inhibition (GI) [3],inhibition of growth at 10 µM [4],inhibition of growth at 10 µM [5],growth inhibition (GI) [6],growth inhibition (GI) [9],inhibition of growth at 10 µM [13],growth inhibition (GI) [15],growth inhibition (GI) [16],inhibition of growth at 10 µM [17],inhibition of growth at 10 µM [18],inhibition of growth at 10 µM [21],inhibition of growth at 10 µM [22],inhibition of growth at 10 µM [24],inhibition of growth at 10 µM [25],inhibition of growth at 10 µM [26],growth inhibition (GI) [28],inhibition of growth at 10 µM [30],growth inhibition (GI) [31],also measured
COc1ccc(Cc2nnc(SCC(=O)Nc3ccc(C)cc3)n2-c2ccc(C)cc2)cc1,5.55%,inactive,inactive,12%,13.1%,inactive,inactive,26.4%,inactive,inactive,2.4%,31.3%,32.4%,39.5%,1.2%,2%,6.19%,inactive,7.21%,inactive,"inhibition of growth at 10 µM ([7]; MCF7, 48 h, read-out: GI): 3%; inhibition of growth at 10 µM ([8]; A549, 48 h, read-out: GI): 1.85%; inhibition of growth at 10 µM ([10]; RPMI-8226, 48 h, read-out: GI): 10%; inhibition of growth at 10 µM ([11]; CAKI-1, 48 h, read-out: GI): 1.24%; inhibition of growth at 10 µM ([12]; KM12, 48 h, read-out: GI): 8.1%; growth inhibition (GI) [14]: inactive; inhibition of growth at 10 µM ([19]; SNB-19, 48 h, read-out: GI): 3.42%; growth inhibition (GI) [20]: inactive; inhibition of growth at 10 µM ([23]; A498, 48 h, read-out: GI): 46.2%; growth inhibition (GI) [27]: inactive; inhibition of growth at 10 µM ([29]; SF-268, 48 h, read-out: GI): 4.43%; inhibition of growth at 10 µM [32]: 2%; growth inhibition (GI) [33]: inactive; inhibition of growth at 10 µM [34]: 4.65%; inhibition of growth at 10 µM [35]: 17.5%; growth inhibition (GI) [36]: inactive; growth inhibition (GI) [37]: inactive; inhibition of growth at 10 µM ([38]; SNB-75, 48 h, read-out: GI): 1.89%; inhibition of growth at 10 µM [39]: 12.8%; growth inhibition (GI) [40]: inactive"
COc1ccc(Cc2nnc(SCC(=O)Nc3ccc(C)cc3)n2-c2ccccc2)cc1,6.11%,inactive,inactive,7.38%,19%,inactive,inactive,9.31%,inactive,inactive,2.2%,11.4%,16.3%,14.9%,6.8%,5.6%,17.3%,inactive,8.16%,inactive,"growth inhibition (GI) [7]: inactive; growth inhibition (GI) [8]: inactive; growth inhibition (GI) [10]: inactive; growth inhibition (GI) [11]: inactive; growth inhibition (GI) [12]: inactive; inhibition of growth at 10 µM ([14]; read-out: GI): 1.56%; growth inhibition (GI) [19]: inactive; inhibition of growth at 10 µM ([20]; SK-MEL-5, 48 h, read-out: GI): 1.4%; growth inhibition (GI) [23]: inactive; inhibition of growth at 10 µM ([27]; read-out: GI): 1.15%; growth inhibition (GI) [29]: inactive; inhibition of growth at 10 µM [32]: 1.62%; growth inhibition (GI) [33]: inactive; inhibition of growth at 10 µM [34]: 2.9%; inhibition of growth at 10 µM [35]: 8.7%; growth inhibition (GI) [36]: inactive; growth inhibition (GI) [37]: inactive; growth inhibition (GI) [38]: inactive; inhibition of growth at 10 µM [39]: 17%; growth inhibition (GI) [40]: inactive"
